How the values were obtained:
[1] = test system: platelet aggregation induced with U46619; test: Blood platelet anti-aggregant activity in vitro on human PRP, U46619; format: cell-based; conditions: ten minutes incubation at 37° C., read-out: IC50 (50% decrease of maximum amplitude of aggregation curve)
Protocol: (§1) The blood platelet anti-aggregant activity of G619 was studied in comparison with picotamide on human platelet rich plasma (PRP), wherein the platelet aggregation was induced with ADP, collagen, AANa and U46619 after incubation at 37° C. for ten minutes with the compounds under test. The results, indicated as a concentration able to decrease by 50% (IC50) the maximum amplitude of the aggregation curve obtained with control plasma incubated only with the buffer, are the following: […]

[2] = Acute toxicity (DL50), mouse; conditions: in vivo, sole administration, seven days observation
Excerpt: (§2) The compound object of the present invention has been tested to ascertain the acute toxicity, bio-disponibility and interference with the blood platelet function in vitro and in vivo by carrying out tests in all cases in comparison with another molecule, picotamide monohydrate, which is included in the same class of products, and the pharmacological activity of which is already known (see German patent 3113150).
(§3) The compound of the present invention was subjected to acute toxicity tests on two animal species and two administration routes. The animals which are treated per os or endovenously in a sole administration, have been held under observation for seven days after treatment by recording the symptomatology and the number of deaths. The results, referred in the following table, are indicated as the dose which produces the death of 50% of the treated animals (DL50) calculated by statistical method: […]

[3] = test system: platelet aggregation induced with AANa; test: Blood platelet anti-aggregant activity in vitro on human PRP, AANa; format: cell-based; conditions: ten minutes incubation at 37° C., read-out: IC50 (50% decrease of maximum amplitude of aggregation curve)
Protocol: as §1

[4] = test system: platelet aggregation induced in PRP using ADP; test: Blood platelet anti-aggregant activity on human volounteers (ADP-induced aggregation in PRP); format: in vivo; conditions: 500 mg sole dose per os; for percent inhibition of the aggregation curve: ADP 2×10^-6 M
Protocol: On healthy human volounteers of both sexes aging from 31 to 53 the blood anti-aggregant activity was evaluated by per os treatment at a 500 mg sole dose, taking the blood samples before treatment and after 1-2-4-6 hours. The platelet aggregation was induced in PRP using ADP as aggregant agent at a concentration of 2×10^-6 M following the method illustrated in example 2. The platelet anti-aggregant activity reported in quantitative terms in the following table, was calculated as percent inhibition of the aggregation curve after treatment with respect to the […]

[5] = test system: platelet aggregation induced with collagen; test: Blood platelet anti-aggregant activity in vitro on human PRP, collagen; format: cell-based; conditions: ten minutes incubation at 37° C., read-out: IC50 (50% decrease of maximum amplitude of aggregation curve)
Protocol: as §1

[6] = test system: platelet aggregation induced with ADP; test: Blood platelet anti-aggregant activity in vitro on human PRP, ADP; format: cell-based; conditions: for IC50: Platelet, ADP, human PRP, ten minutes incubation at 37° C., read-out: IC50 (50% decrease of maximum amplitude of aggregation curve)
Protocol: as §1

[7] = test system: Blood platelet aggregation from AANa; test: Blood platelet anti-aggregate activity in vitro, arachidonic acid (AANa)-induced aggregation, rabbit PRP; format: cell-based; conditions: Oryctolagus cuniculus, 10 min, 10 minutes incubation at 37° C., read-out: IC50 (50% decrease of maximum amplitude of aggregation curve)
Excerpt: as §2
(§4) Platelet aggregation was induced in rabbit "platelet rich plasma" (PRP) by employing as aggregant agents adenosine diphosphate (ADP) and arachidonic acid (AANa) after incubation at 37° C. for 10 minutes with the compounds under test. The activity is expressed as the concentration able to decrease by 50% (IC50) the maximum amplitude (AM) of the aggregation curve so obtained, with respect to the aggregation curve as obtained with control plasmas incubated only with buffers.
(§5) The results of the tests effected with ADP and AANa are hereinafter referred: […]

[8] = test system: Blood platelet aggregation from ADP; test: Blood platelet anti-aggregate activity in vitro, ADP-induced aggregation, rabbit PRP; format: cell-based; conditions: Oryctolagus cuniculus, 10 min, 10 minutes incubation at 37° C., read-out: IC50 (50% decrease of maximum amplitude of aggregation curve)
Excerpt: as §2, §4, §5

[9] = test system: platelet aggregation induced by arachidonic acid; test: Blood platelet anti-aggregant activity in vivo (arachidonic acid-induced aggregation in PRP of treated rabbits); set-up: species or system New Zealand rabbits; conditions: for ED50: Oryctolagus cuniculus, Platelet, 0.5 h, rabbit, gum acacia suspension, blood taken 30 minutes after treatment, arachidonic acid, read-out: ID50 (dose decreasing by 50% the maximum amplitude of the aggregation curve)
Excerpt: as §2
New Zealand rabbits which had been held fasting for twelve hours with water ad libitum, were administered with G 619 and picotamide monohydrate at various dosages in a gum acacia suspension. To the control rabbits only gum acacia was administered. After 30 minutes from treatment the animals were anaesthetized with sodium pentothal (30 mg/Kg i.v.) and blood was taken from the carotid artery, rendered incoagulable with sodium citrate at 3,8% and centrifuged at 1400 rpm for 15 minutes in order to obtain the platelet rich plasma (PRP). On said PRP the platelet aggregation was induced by arachidonic acid and the corresponding aggregation curve was recorded using a Born aggregometer. The activity is indicated as the dose able to decrease by 50% (ID50) the maximum amplitude (AM) of the aggregation curve of plasma of treated animals with respect to that of plasma from control animals, the following results being obtained: […]

[10] = Acute toxicity (DL50), rat; conditions: in vivo, sole administration, seven days observation
Excerpt: as §2, §3

[11] = test system: production of thromboxane B2 (TxB2); test: Production of thromboxane B2 (TxB2) in human PRP after stimulation with collagen; format: cell-based; conditions: collagen 1 μg/ml, TxB2 measured in ug/ml
Protocol: In order to investigate the mechanism of action of G619 the production of malondialdehyde (MDA) and thromboxane B2 (TxB2) after stimulation with collagen 1 μg/ml was measured on human PRP.

[12] = test system: production of 6-keto-PGFla; test: Production of 6-keto-PGFla in human PRP after stimulation with collagen; format: cell-based; conditions: collagen 1 ug/ml
Protocol: The production of 6-keto-PGFla was also measured after stimulation of human PRP with collagen 1 ug/ml.

[13] = Per os absorbtion in rat, plasma levels; format: in vivo; conditions: for concentration at 0.5 h: 1/2 h; for absorbtion, times higher than that of picotamide monohydrate: rat per os
Excerpt: as §2
Per os absorbtion tests have been carried out in rat after a sole administration of 100 mg/Kg in gum acacia suspension. The determinations of the blood levels of the two substances at various times have been effected on plasma using a high pressure liquid phase chromotograph and indicated as γ/ml. The values referred hereinafter represent the average of 8 determinations: […]

[14] = in vivo, po, rat, 100 mg/Kg per os, gum acacia suspension, average of 8 determinations, read-out: blood level (plasma)

Structure (SMILES)	IC50 [1] [µM]	LD50 at 168 h ([2]; iv) [mg/kg]	LD50 at 168 h ([2]; po, os) [mg/kg]	IC50 [3] [µM]	maximum activity (platelet anti-aggregant) ([4]; ADP)	percent inhibition of the aggregation curve ([4]; 1 h)	percent inhibition of the aggregation curve ([4]; 2 h)	percent inhibition of the aggregation curve ([4]; 4 h)	percent inhibition of the aggregation curve ([4]; 6 h)	IC50 [5] [µM]	IC50 [6] [µM]	IC50 [7] [µM]	IC50 [8] [µM]	ED50 [9] [mg/kg]	LD50 at 168 h ([10]; iv) [mg/kg]	LD50 at 168 h ([10]; po, os) [mg/kg]	IC50 [11] [µM]	concentration at 0.5 h [13, 14] [ng/mL]	concentration at 1 h [13, 14] [ng/mL]	concentration at 2 h [13, 14] [ng/mL]	also measured
COc1ccc(C(N)=O)cc1C(=O)NCc1cccnc1 [G 619, 3-carbamoyl(3'-picolyl)-4-methoxy-1-benzamide]	9.2	400	> 3000	4.2	53,8%	38,2%	53,8%	43,4%	24,2%	11	56	26.9	125	25	450	> 3000	4.6	26900	20200	9400	time after treatment of maximum activity ([4]; ADP): two; power of action, factor higher with respect to picotamide ([6]; platelet aggregations induced in human PRP (ADP, collagen, AANa, U46619)): 10 factor; activity, times higher than that of picotamide monohydrate ([9]; rabbit in vivo, ID50): about 3 times; activation at 1 µM ([12]; starting from concentrations of 10^-6 M, read-out: increase in the production of 6-keto-PGFla): 100 to 150%; concentration at 4 h ([13]; in vivo, po, rat, 100 mg/Kg per os, gum acacia suspension, 4 h, average of 8 determinations, read-out: blood level (plasma)): 2100 ng/mL; absorbtion, times higher than that of picotamide monohydrate ([13]; 1/2 hour): 8 times; absorbtion, times higher than that of picotamide monohydrate ([13]; 2 hours): 19 times
COc1ccc(C(=O)NCc2cccnc2)cc1C(=O)NCc1cccnc1 [Picotamide monohydrate, N-N'-bis-(3-picolyl)-4-methoxy-isophthalamide monohydrate, reference compound]	250	275	3000	89	41,1%	18,2%	25,6%	41,1%	21,5%	100	820	79	930	78	190	3000	10	3400	1200	500	effect on production of 6-keto-PGFla (in words) ([12]; 10^-6 M): hardly efficient

— patent publication US4698354A, “4-methoxy-isophthalic acid derivative having a pharmacological activity in thromboembolic disorders” (Societa Italo-Brittanica L. Manetti-H. Roberts & Co., priority 1986, dated 1987)
